Test results as given in ChEMBL document CHEMBL4715741, “Neuroprotective effect of synthetic chalcone derivatives as competitive dual inhibitors against μ-calpain and cathepsin B through the downregulation of tau phosphorylation and insoluble Aβ peptide formation” (Eur J Med Chem, 2016).
Activity calls are given as the source filed them. The rule behind the calls is not given here. Square brackets hold non-standard residues; d marks the D form. Peptide text beside a SMILES is read from it. * marks the point of attachment. ξ: configuration not given here. ξF = NC(Cc1ccccc1)C(=O)O; Cbz = O=C(OCc1ccccc1)*; CH2F = FC*

Key:
[1] = biological target: T1, Calpain-1 catalytic subunit (Homo sapiens, UniProt P07384); assay: Inhibition of human erythrocytes mu-calpain using Pep1 as substrate incubated for 30 mins under shaking condition in presence of CaCl2 by fluorescence assay; design: species or system Erythrocyte
T1 sequence (P07384 whole entry): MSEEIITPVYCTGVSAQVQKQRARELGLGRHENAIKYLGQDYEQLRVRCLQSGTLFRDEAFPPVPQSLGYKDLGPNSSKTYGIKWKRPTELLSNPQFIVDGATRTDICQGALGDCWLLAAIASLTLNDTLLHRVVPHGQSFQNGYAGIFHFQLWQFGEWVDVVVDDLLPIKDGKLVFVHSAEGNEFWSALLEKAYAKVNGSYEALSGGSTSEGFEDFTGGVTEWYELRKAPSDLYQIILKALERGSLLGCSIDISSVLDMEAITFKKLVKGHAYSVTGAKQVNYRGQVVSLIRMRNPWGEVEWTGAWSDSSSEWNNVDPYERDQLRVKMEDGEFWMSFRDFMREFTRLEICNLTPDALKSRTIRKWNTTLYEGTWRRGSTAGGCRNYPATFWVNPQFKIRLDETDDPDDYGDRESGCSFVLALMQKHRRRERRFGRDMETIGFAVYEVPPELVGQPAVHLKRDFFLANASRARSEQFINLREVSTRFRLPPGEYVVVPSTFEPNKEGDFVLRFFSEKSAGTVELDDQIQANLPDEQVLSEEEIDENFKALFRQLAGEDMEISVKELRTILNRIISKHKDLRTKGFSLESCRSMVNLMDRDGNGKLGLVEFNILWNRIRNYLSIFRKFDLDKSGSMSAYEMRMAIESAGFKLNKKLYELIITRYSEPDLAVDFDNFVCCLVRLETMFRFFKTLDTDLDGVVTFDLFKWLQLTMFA

Cathepsin B [2] = biological target: T2, Cathepsin B (Homo sapiens, UniProt P07858); assay: Inhibition of cathepsin B (unknown origin) using RR-AMC as substrate preincubated for 30 mins followed by substrate addition and further incubated for 30 mins under shaking condition by fluorescence assay
Procathepsin L = Procathepsin L (Homo sapiens, UniProt P07711); assay: Inhibition of cathepsin L (unknown origin) using Z-FR-AMC as substrate preincubated for 30 mins followed by substrate addition and further incubated for 30 mins under shaking condition by fluorescence assay
Procathepsin L, sequence (P07711 whole entry): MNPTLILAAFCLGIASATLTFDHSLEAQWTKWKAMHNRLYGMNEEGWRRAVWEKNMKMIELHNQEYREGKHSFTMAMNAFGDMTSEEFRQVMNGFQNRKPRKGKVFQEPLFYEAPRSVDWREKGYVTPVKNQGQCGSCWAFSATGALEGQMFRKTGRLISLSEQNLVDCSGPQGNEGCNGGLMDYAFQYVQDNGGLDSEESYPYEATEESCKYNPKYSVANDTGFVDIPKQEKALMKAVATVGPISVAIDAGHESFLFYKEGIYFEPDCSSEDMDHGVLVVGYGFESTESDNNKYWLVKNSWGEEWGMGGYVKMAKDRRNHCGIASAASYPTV

[3] = biological target: T3, Calpain-1 catalytic subunit (Homo sapiens) (UniProt P07384); assay: Inhibition of mu-calpain in human SH-SY5Y cells assessed as reduction in GOx-induced MAPK phosphorylation pretreated with GOx for 4 hrs followed by compound treatment by Western blot analysis; assay type: cell-based
T3 sequence (whole entry): T1 sequence (P07384 whole entry)

Cathepsin B [4] = biological target: T2, Cathepsin B; assay: Competitive inhibition of cathepsin B (unknown origin) using varying level of RR-AMC as substrate by Lineweaver-Burk plot analysis
SH-SY5Y [5] = assay: Neuroprotective activity in human SH-SY5Y cells assessed as reduction in GOx-induced PARP cleavage at 5 uM pretreated with GOx for 4 hrs followed by compound treatment by Western blot analysis; assay type: functional, cell-based
[6] = biological target: T3, Calpain-1 catalytic subunit (Homo sapiens); assay: Inhibition of mu-calpain (unknown origin) expressed in HEK293T cells assessed as reduction in p35 cleavage at 5 uM using p35 as substrate measured after 210 mins by fluorescence microplate reader assay; assay type: cell-based
[7] = biological target: T3, Calpain-1 catalytic subunit (Homo sapiens); assay: Inhibition of mu-calpain in human SH-SY5Y cells assessed as reduction in GOx-induced […] pretreated with GOx for 4 hrs followed by compound treatment by Western blot analysis; assay type: cell-based
SH-SY5Y [8] = assay: Inhibition of mu-calpain/cathepsin B in human SH-SY5Y cells assessed as reduction in GOx-induced BACE1 upregulation at 20 uM pretreated with GOx for 4 hrs followed by compound treatment by Western blot analysis; assay type: cell-based
SH-SY5Y [9] = assay: Reduction in GOx-induced amyloid beta(1 to 42) level in human SH-SY5Y cells pretreated with GOx for 4 hrs followed by compound treatment by sandwich ELISA; assay type: functional, cell-based
[10] = biological target: T1, Calpain-1 catalytic subunit; assay: (§1) Competitive inhibition of human erythrocytes mu-calpain using varying level of Pep2 as substrate by Lineweaver-Burk plot analysis; design: species or system Erythrocyte
[11] = biological target: T3, Calpain-1 catalytic subunit (Homo sapiens); assay: as §1; settings: Erythrocyte
SH-SY5Y [12] = assay: Neuroprotective activity in human SH-SY5Y cells assessed as reduction in GOx-induced caspase 3 cleavage pretreated with GOx for 4 hrs followed by compound treatment by Western blot analysis; assay type: functional, cell-based
Cathepsin B [13] = biological target: T2, Cathepsin B; assay: Inhibition of cathepsin B in human SH-SY5Y cells using RR-AMC as substrate by fluorescence microplate reader assay; assay type: cell-based
[14] = biological target: T3, Calpain-1 catalytic subunit (Homo sapiens); assay: Inhibition of mu-calpain in human SH-SY5Y cells assessed as reduction in tau phosphorylation by Western blot analysis; assay type: cell-based
[15] = biological target: T3, Calpain-1 catalytic subunit (Homo sapiens); assay: Inhibition of mu-calpain (unknown origin) expressed in SH-SY5Y cells assessed as reduction in p35 cleavage at 20 uM using p35 as substrate measured after 210 mins by fluorescence microplate reader assay; assay type: cell-based
[16] = biological target: T1, Calpain-1 catalytic subunit; assay: Inhibition of human erythrocytes mu-calpain using Pep2 as substrate incubated for 30 mins under shaking condition in presence of CaCl2 by fluorescence assay; design: species or system Erythrocyte
SH-SY5Y [17] = assay: Neuroprotective activity in human SH-SY5Y cells assessed as reduction in GOx-induced PARP cleavage at 20 uM pretreated with GOx for 4 hrs followed by compound treatment by Western blot analysis; assay type: functional, cell-based
Cathepsin B [18] = biological target: T2, Cathepsin B; assay: Inhibition of human liver cathepsin B using RR-AMC as substrate preincubated for 30 mins followed by substrate addition and further incubated for 30 mins under shaking condition by fluorescence assay; assay type: tissue-based

SMILES | IC50 [1] [µM] | IC50 (Cathepsin B [2]) [µM] | IC50 (Procathepsin L) [µM] | further results
COc1ccc(/C=C/C(=O)/C=C/c2ccc(O)cc2OC)cc1 | 46.6 | 37.8 | > 50 | –
COc1ccccc1/C=C/C=C/C(=O)c1cccnc1 | 19.1 | 33.3 | 48.4 | –
O=C(N[C@@H](Cc1ccccc1)C(=O)N[C@@H](Cc1ccccc1)C(=O)CF)OCc1ccccc1 (Cbz-Phe-Phe-CH2F) | 0.397 | – | – | –
COc1ccc(/C=C/C(=O)c2ccc(O)cc2)c2ccccc12 | 10.2 | 14.5 | 25.8 | –
CCCC[C@@H](C=O)NC(=O)[C@H](CC(C)C)NC(=O)OCc1ccccc1 [CALPEPTIN] | 0.297 | > 100 | 0.072 | –
COc1ccc(O)cc1/C=C/C(=O)c1ccc(O)cc1 | – | – | – | IC50 [16]: 16.7 µM
COc1cc(O)ccc1C(=O)/C=C/c1ccc(O)cc1 | – | – | – | IC50 [16]: 16.9 µM
CCCNC(=O)[C@H]1O[C@@H]1C(=O)N[C@H](C(=O)N1CCC[C@H]1C(=O)O)[C@@H](C)CC | > 100 | – | – | Activity (SH-SY5Y [17]): Active
O=C(/C=C/c1ccc(O)c2ccccc12)c1ccco1 | 40.9 | > 50 | 33 | –
COc1cc(/C=C/C(=O)c2ccco2)ccc1O | – | – | – | IC50 (Cathepsin B [18]): 20.6 µM; IC50 [16]: 15.4 µM
CC(C)[C@H](NC(=O)OCc1ccccc1)C(=O)NC(C=O)Cc1ccccc1 (stereo partly drawn) (Cbz-Val-[ξF]-aldehyde) | – | – | – | Activity (SH-SY5Y [17]): Active
COc1cc(/C=C/C=C/C(=O)c2ccc(O)cc2)ccc1O | 16.8 | 11.1 | 16 | inhibition [3]: Active; Ki (Cathepsin B [4]): 4.74 µM; inhibition (Cathepsin B [4]): Dose-dependent effect; Activity (SH-SY5Y [5]): Active; inhibition [6]: Active; inhibition [7]: Active; inhibition (SH-SY5Y [8]): Active; Activity (SH-SY5Y [9]): Active; Ki [10]: 5.73 µM; inhibition [11]: Dose-dependent effect; Activity (SH-SY5Y [12]): Active; IC50 (Cathepsin B [13]): 3.81 µM; inhibition [14]: Active; inhibition [15]: Active

Second part, led by results:

IC50 [1] [µM] | IC50 (Cathepsin B [2]) [µM] | IC50 (Procathepsin L) [µM] | SMILES | further results
13.7 | 33.1 | 26.1 | COc1ccccc1/C=C/C=C/C(=O)c1ccc(O)cc1 | –
13 | 13.9 | 27 | CCOc1cc(O)ccc1C(=O)/C=C/C=C/c1ccccc1OC | –
18.8 | 6.34 | 14.9 | O=C(/C=C/c1ccc(O)c2ccccc12)c1ccc(O)cc1O | inhibition [3]: Active; Ki (Cathepsin B [4]): 10.6 µM; inhibition (Cathepsin B [4]): Dose-dependent effect; Activity (SH-SY5Y [5]): Active; inhibition [6]: Active; inhibition [7]: Active; inhibition (SH-SY5Y [8]): Active; Activity (SH-SY5Y [9]): Active; Ki [10]: 19.3 µM; inhibition [11]: Dose-dependent effect; Activity (SH-SY5Y [12]): Active; IC50 (Cathepsin B [13]): 13 µM; inhibition [14]: Active; inhibition [15]: Active
69.6 | 14.8 | 21.6 | O=C(/C=C/c1ccc(O)c2ccccc12)c1ccc(O)cc1 | –
> 50 | > 50 | 35.4 | O=C(/C=C/c1ccc(O)c2ccccc12)c1cccs1 | –
23.8 | 15.6 | 15.6 | COc1cc(O)ccc1C(=O)/C=C/c1ccc(O)c2ccccc12 | –
62.3 | 14.4 | 2.41 | CCOC(=O)[C@H]1O[C@@H]1C(=O)N[C@@H](CC(C)C)C(=O)NCCC(C)C [ALOXISTATIN] | Activity (SH-SY5Y [17]): Active
